ChEMBL document CHEMBL1909046, “DrugMatrix in vitro pharmacology data”

Experiments:
Cytochrome P450 2C19 = Cytochrome P450 2C19 (Homo sapiens, UniProt P33261); settings: bti-tn-5b1-4; further: in other assays of this panel Not Active means under 50% inhibition at 10 µM
[1] = DRUGMATRIX: GABAA, Muscimol, Central radioligand binding (ligand: [3H] Muscimol); assay type: cell membranes, Rattus norvegicus, Wistar, Brain, Membrane; settings: Not Active = under 50% inhibition at 10 µM
[2] = target: T1, Angiotensin-converting enzyme (Oryctolagus cuniculus, UniProt P12822); assay type: tissue-based, Lung;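 further: enzymatic inhibition of angiotensin-converting enzyme measured with FAPGG as the substrate; in other assays of this panel Not Active means under 50% inhibition at 10 µM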
T1 sequence (P12822 whole entry): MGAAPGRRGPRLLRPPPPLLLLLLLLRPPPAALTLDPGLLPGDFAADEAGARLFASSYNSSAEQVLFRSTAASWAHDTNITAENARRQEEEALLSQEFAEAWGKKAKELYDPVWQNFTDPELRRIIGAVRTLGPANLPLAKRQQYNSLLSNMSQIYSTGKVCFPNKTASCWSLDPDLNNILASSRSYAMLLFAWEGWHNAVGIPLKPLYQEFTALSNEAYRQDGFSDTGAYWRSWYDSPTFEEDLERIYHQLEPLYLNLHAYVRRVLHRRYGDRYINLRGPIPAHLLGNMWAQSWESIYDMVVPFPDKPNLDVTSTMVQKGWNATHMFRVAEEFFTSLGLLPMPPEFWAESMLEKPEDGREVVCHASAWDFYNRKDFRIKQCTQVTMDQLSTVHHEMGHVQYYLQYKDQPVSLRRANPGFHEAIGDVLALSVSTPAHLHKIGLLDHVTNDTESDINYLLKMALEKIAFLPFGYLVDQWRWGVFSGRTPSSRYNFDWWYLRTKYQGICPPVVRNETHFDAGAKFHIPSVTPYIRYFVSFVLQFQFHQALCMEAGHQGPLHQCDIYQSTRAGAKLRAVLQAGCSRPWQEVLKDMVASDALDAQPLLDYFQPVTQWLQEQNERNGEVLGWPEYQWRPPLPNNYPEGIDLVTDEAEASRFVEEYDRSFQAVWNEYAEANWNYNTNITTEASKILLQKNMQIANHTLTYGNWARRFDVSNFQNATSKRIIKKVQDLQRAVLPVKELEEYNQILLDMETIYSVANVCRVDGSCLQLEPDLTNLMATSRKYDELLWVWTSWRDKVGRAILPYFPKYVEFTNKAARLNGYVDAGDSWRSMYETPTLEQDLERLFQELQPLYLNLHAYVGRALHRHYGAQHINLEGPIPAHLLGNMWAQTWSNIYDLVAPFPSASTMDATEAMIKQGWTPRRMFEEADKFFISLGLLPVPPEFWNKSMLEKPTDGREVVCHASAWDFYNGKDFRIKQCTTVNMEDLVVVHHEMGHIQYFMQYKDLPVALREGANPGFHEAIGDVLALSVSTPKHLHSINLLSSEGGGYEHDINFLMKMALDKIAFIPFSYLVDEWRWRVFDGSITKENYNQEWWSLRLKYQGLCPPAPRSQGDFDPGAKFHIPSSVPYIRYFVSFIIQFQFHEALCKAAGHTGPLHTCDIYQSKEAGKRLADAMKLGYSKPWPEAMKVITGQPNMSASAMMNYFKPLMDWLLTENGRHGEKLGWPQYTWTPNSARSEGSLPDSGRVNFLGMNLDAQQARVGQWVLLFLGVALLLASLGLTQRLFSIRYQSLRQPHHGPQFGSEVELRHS

[3] = DRUGMATRIX: Sodium/nucleoside co-transporter radioligand binding (ligand: nitrobenzylthioinosine); assay type: cell membranes, Cavia porcellus, Dunkin-Hartley, Cerebral cortex, Membrane; settings: Not Active = under 50% inhibition at 10 µM
[4] = target: Protein phosphatase 3 catalytic subunit alpha (Homo sapiens, UniProt Q08209); parameters: species or system Escherichia coli;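 further: inhibition of calcineurin (PP2B) enzyme activity, measured with DiFMUP as the substrate; in other assays of this panel Not Active means under 50% inhibition at 10 µM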
[5] = target: T2, C-X-C chemokine receptor type 2 (Homo sapiens, UniProt P25025); assay type: cell membranes, Membrane; settings: cho-k1; further: in other assays of this panel Not Active means under 50% inhibition at 10 µM
T2 sequence (P25025 whole entry): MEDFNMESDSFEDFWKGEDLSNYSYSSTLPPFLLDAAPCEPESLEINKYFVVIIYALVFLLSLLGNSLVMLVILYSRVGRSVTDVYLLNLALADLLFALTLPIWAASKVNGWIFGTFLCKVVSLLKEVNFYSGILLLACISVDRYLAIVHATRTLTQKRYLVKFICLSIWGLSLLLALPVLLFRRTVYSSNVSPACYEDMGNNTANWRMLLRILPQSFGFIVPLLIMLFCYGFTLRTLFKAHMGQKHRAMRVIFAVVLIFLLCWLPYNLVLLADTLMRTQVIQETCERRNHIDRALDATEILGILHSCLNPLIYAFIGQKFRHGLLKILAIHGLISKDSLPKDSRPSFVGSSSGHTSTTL

[6] = DRUGMATRIX: beta-Lactamase enzyme inhibition (substrate: Nitrocefin); parameters: species or system Bacillus cereus; settings: Not Active = under 50% inhibition at 10 µM
Estrogen receptor beta = Estrogen receptor beta (Homo sapiens, UniProt Q92731); settings: sf9; further: in other assays of this panel Not Active means under 50% inhibition at 10 µM
D(4) dopamine receptor = target: T3, D(4) dopamine receptor (Homo sapiens, UniProt P21917); assay: DRUGMATRIX: Dopamine D4.2 radioligand binding (ligand: [3H] Spiperone); assay type: cell membranes, CHO-K1, Membrane; settings: cho-k1; Not Active = under 50% inhibition at 10 µM
T3 sequence (P21917 whole entry): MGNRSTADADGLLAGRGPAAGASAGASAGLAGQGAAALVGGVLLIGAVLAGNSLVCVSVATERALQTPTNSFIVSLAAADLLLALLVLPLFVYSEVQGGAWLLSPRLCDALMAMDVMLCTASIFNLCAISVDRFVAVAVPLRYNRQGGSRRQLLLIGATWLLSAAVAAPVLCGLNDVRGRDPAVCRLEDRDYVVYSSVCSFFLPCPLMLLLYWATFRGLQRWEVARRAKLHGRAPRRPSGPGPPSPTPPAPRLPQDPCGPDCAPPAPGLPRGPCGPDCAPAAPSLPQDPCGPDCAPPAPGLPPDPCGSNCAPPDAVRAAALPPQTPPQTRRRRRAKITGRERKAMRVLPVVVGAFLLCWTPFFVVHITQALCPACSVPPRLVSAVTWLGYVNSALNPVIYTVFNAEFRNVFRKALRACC

Chain of Cytochrome P450 2C19 (P33261 whole entry): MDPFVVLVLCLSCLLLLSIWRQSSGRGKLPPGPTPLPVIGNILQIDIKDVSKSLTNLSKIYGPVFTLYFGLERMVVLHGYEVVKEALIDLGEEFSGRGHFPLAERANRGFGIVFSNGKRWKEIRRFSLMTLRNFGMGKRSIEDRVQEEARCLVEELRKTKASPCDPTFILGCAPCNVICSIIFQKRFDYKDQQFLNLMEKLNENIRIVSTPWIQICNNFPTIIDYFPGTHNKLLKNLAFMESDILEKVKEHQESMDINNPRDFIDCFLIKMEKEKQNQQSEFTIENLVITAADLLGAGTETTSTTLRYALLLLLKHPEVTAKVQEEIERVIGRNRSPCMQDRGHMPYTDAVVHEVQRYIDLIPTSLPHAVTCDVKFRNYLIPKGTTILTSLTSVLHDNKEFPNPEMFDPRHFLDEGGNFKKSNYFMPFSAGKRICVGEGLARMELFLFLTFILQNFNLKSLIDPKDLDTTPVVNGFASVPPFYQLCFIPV
Chain of Estrogen receptor beta (Q92731 whole entry): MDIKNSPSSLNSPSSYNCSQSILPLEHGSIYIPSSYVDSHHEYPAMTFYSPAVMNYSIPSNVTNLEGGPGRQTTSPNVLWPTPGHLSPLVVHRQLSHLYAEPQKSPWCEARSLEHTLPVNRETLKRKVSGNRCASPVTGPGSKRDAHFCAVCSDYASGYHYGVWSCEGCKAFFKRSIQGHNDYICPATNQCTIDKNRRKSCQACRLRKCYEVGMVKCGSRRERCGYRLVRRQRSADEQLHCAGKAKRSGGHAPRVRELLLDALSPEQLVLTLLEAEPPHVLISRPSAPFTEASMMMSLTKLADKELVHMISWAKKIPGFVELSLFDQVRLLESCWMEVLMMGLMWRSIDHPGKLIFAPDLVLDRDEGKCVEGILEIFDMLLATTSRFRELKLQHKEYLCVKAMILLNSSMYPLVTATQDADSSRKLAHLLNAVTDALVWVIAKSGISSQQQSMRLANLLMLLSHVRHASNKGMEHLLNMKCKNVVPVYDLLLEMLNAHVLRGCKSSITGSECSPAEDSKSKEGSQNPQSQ

CC(C)CN(C[C@@H](O)[C@H](Cc1ccccc1)NC(=O)O[C@H]1CCOC1)S(=O)(=O)c1ccc(N)cc1
Not Active: IC50 (Cytochrome P450 2C19) | Ki (Cytochrome P450 2C19) | IC50 [1] | Ki [1] | IC50 [2] | IC50 [3] | Ki [3] | IC50 [4] | IC50 [5] | IC50 [6] | Ki [6] | IC50 (Estrogen receptor beta) | IC50 (D(4) dopamine receptor)

c1ccc(Nc2ccc(Nc3ccccc3)cc2)cc1
Not Active: IC50 (Cytochrome P450 2C19) | Ki (Cytochrome P450 2C19) | IC50 [1] | Ki [1] | IC50 [2] | IC50 [3] | Ki [3] | IC50 [4] | IC50 [5] | IC50 [6] | Ki [6] | IC50 (Estrogen receptor beta) | IC50 (D(4) dopamine receptor)

COc1cc2c3cc1Oc1cc(ccc1O)C[C@@H]1c4c(cc(OC)c(O)c4Oc4ccc(cc4)C[C@@H]3N(C)CC2)CC[N+]1(C)C.[Cl-]
Not Active: IC50 (Cytochrome P450 2C19) | Ki (Cytochrome P450 2C19) | IC50 [1] | Ki [1] | IC50 [2] | IC50 [3] | Ki [3] | IC50 [4] | IC50 [5] | IC50 [6] | Ki [6] | IC50 (Estrogen receptor beta) | IC50 (D(4) dopamine receptor)

NC(=O)N1c2ccccc2CCc2ccccc21
Not Active: IC50 (Cytochrome P450 2C19) | Ki (Cytochrome P450 2C19) | IC50 [1] | Ki [1] | IC50 [2] | IC50 [3] | Ki [3] | IC50 [4] | IC50 [5] | IC50 [6] | Ki [6] | IC50 (Estrogen receptor beta) | IC50 (D(4) dopamine receptor)

O=C1CC[C@@H](N2C(=O)c3ccccc3C2=O)C(=O)N1
Not Active: IC50 (Cytochrome P450 2C19) | Ki (Cytochrome P450 2C19) | IC50 [1] | Ki [1] | IC50 [2] | IC50 [3] | Ki [3] | IC50 [4] | IC50 [5] | IC50 [6] | Ki [6] | IC50 (Estrogen receptor beta) | IC50 (D(4) dopamine receptor)

CC(C)[C@@]1(NC(=O)[C@@H]2C[C@@H]3c4cccc5[nH]cc(c45)C[C@H]3N(C)C2)O[C@@]2(O)[C@@H]3CCCN3C(=O)[C@H](Cc3ccccc3)N2C1=O.CS(=O)(=O)O [DIHYDROERGOCRISTINE MESYLATE]
Not Active: IC50 [1] | Ki [1] | IC50 [2] | IC50 [3] | Ki [3] | IC50 [4] | IC50 [5] | IC50 [6] | Ki [6] | IC50 (Estrogen receptor beta) | IC50 (D(4) dopamine receptor)

COCCc1ccc(OCC(O)CNC(C)C)cc1 (stereo unspecified) [METOPROLOL]
Not Active: IC50 [1] | Ki [1] | IC50 [2] | IC50 [3] | Ki [3] | IC50 [4] | IC50 [5] | IC50 [6] | Ki [6] | IC50 (Estrogen receptor beta) | IC50 (D(4) dopamine receptor)

CCn1cc(C(=O)O)c(=O)c2cc(F)c(N3CCNCC3)cc21 [NORFLOXACIN]
Not Active: IC50 [1] | Ki [1] | IC50 [2] | IC50 [3] | Ki [3] | IC50 [4] | IC50 [5] | IC50 [6] | Ki [6] | IC50 (Estrogen receptor beta) | IC50 (D(4) dopamine receptor)

CC1(C)S[C@@H]2[C@H](NC(=O)Cc3ccccc3)C(=O)N2[C@H]1C(=O)O [PENICILLIN G]
Not Active: IC50 [1] | Ki [1] | IC50 [2] | IC50 [3] | Ki [3] | IC50 [4] | IC50 [5] | IC50 [6] | Ki [6] | IC50 (Estrogen receptor beta) | IC50 (D(4) dopamine receptor)

CCOc1ccc(NC(C)=O)cc1 [PHENACETIN]
Not Active: IC50 [1] | Ki [1] | IC50 [2] | IC50 [3] | Ki [3] | IC50 [4] | IC50 [5] | IC50 [6] | Ki [6] | IC50 (Estrogen receptor beta) | IC50 (D(4) dopamine receptor)

CN(C)CCCN1c2ccccc2Sc2ccccc21 [PROMAZINE]
Not Active: IC50 [1] | Ki [1] | IC50 [2] | IC50 [3] | Ki [3] | IC50 [4] | IC50 [5] | IC50 [6] | Ki [6] | IC50 (Estrogen receptor beta) | IC50 (D(4) dopamine receptor)
